Assay results from patent US9701709B2 (REATA PHARMACEUTICALS, INC., priority 2012, dated 2017).
Read-outs that look alike come from different tables or passages of the source.

How the values were obtained:
ovalbumin-induced asthma = test: Ovalbumin-induced asthma in mice; format: in vivo, mouse
Description: Mice were sensitized with an IP injection of ovalbumin and aluminum hydroxide on Day 0 and Day 14 and challenged intranasally with ovalbumin in saline on Days 14, 25, 26, and 27. […] An increase in the number of T cells and B cells was also observed in the vehicle-treated mice.

[1] = tested on: pyruvate in C2Cl2 muscle cells; test: Pyruvate levels in C2Cl2 myotubes; format: cell-based, rodent; conditions: differentiated C2Cl2 myotubes; 250 nM or 500 nM, 18 h
Experimental: Following drug treatment, media was removed and cells were washed with PBS. Cells were lysed in Pyruvate Assay Buffer (Pyruvate Assay Kit, BioVision, Catalog # K609-100). Cell lysates were centrifuged (10 min at 14,000 rpm, 4° C.) and pyruvate levels were measured in the supernatant.

[2] = Oral pharmacokinetics in rats; format: in vivo, rat; conditions: oral suspension, 10 to 100 mg/kg
Experimental: Measurements were performed on TQD and QToF mass spectrometers (Waters).
Following oral administration of a suspension formulation at doses of 10 to 100 mg/kg, maximal concentrations were observed within 1 to 2 h in mice, and within 1 to 24 h in rats and monkeys.

[3] = Metabolism in monkey liver microsomes; format: in vitro ADME; conditions: 60-min incubation, NADPH and UGT
[4] = 28-day toxicity study in rats; format: in vivo, rat
pulmonary function = test: Pulmonary evaluation in rats; format: in vivo, rat; conditions: single oral dose up to and including 30 mg/kg
Experimental: One additional group of 8 animals/sex served as the control and received vehicle (sesame oil).
Observations for mortality, morbidity, injury, and availability of food and water were conducted twice daily for all animals. Clinical observations were conducted prior to dosing, approximately 4 h post-dose, and following completion of the 8-h pulmonary monitoring period. […] Pulmonary function (respiratory rate, tidal volume, and minute volume) was monitored for at least 1 h prior to dosing to establish a baseline and for at least 8 h post-dose.

[5] = Plasma protein binding (ultracentrifugation), minipig
cynomolgus monkeys = conditions: for ALP / ALT / AST / Albumin / BUN / Chol / Cr / Glucose / TG / Tot Bil / Tot Prot: monkey, Day 14
[6] = tested on: total glutathione in AML-12 hepatocyte cell line; test: Total glutathione (GSH-Glo) in AML-12; format: cell-based, mouse; conditions: AML-12, 24 h, 15.6 nM
Description: Glutathione and NADPH are critical factors required for the maintenance of cellular redox capacity. […] Data shown are representative of two independent experiments.

CYP2C9 = CYP2C9 (Homo sapiens, UniProt P11712); test: CYP450 inhibition in pooled human liver microsomes, CYP2C9; format: in vitro ADME; conditions: highest concentration tested (3 μM)
Sequence of CYP2C9 (P11712 whole entry): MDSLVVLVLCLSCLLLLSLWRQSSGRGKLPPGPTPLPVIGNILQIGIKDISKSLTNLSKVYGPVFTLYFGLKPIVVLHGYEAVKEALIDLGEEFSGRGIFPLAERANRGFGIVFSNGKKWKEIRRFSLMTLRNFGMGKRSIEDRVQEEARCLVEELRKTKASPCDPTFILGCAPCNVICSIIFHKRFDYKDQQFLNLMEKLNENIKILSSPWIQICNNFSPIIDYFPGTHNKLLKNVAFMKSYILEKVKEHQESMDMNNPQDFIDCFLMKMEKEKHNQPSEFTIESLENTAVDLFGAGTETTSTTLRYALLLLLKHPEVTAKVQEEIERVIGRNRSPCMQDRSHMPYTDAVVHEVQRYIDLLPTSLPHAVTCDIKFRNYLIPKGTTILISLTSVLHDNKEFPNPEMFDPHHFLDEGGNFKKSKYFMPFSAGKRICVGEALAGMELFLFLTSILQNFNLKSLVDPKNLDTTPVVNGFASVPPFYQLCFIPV
Description: (§1) In addition, there was little or no evidence of metabolism-dependent inhibition of any of the enzymes tested.

[7] = tested on: STAT3 phosphorylation in HeLa cells; test: IL-6-induced STAT3 phosphorylation in HeLa; format: cell-based, human; conditions: 1 μM, 6 h pretreatment
NQO1 activity = NQO1 activity induction in mouse liver, lung, and kidney after PO QD×3; format: in vivo; conditions: mice PO QD×3 25 mg/kg, 6 h after last dose
Experimental: FIG. 53—NQO1 activity induction in mouse liver, lung, and kidney by 63415. Mice were dosed PO QD×3 with 25 mg/kg. Tissues were collected 6 h after the last dose, and analysis of NQO1 activity was performed.

[8] = tested on: lactate in C2Cl2 muscle cells; test: Lactate levels in C2Cl2 myotubes; format: cell-based, rodent; conditions: differentiated C2Cl2 myotubes; 1 μM or 2 μM, 3 h
Experimental: Buffer was removed and saved for measurement of extracellular lactate levels. Cell debris was pelleted by centrifugation (10 min at 14,000 rpm) prior to measurement of lactate. To measure intracellular lactate, cells were suspended in 0.1% Triton X-100 in PBS and lysed by shearing with a 25 gauge needle. Cell lysate was centrifuged (10 min at 14,000 rpm, 4° C.) and lactate was measured in the supernatant. Intracellular and extracellular lactate was measured using the Lactate Assay Kit (BioVision, Catalog # K607-100).

CYP1A2 = CYP1A2 (Homo sapiens, UniProt P05177); test: in vitro; format: in vitro ADME; conditions: microsomes
Sequence of CYP1A2 (P05177 whole entry): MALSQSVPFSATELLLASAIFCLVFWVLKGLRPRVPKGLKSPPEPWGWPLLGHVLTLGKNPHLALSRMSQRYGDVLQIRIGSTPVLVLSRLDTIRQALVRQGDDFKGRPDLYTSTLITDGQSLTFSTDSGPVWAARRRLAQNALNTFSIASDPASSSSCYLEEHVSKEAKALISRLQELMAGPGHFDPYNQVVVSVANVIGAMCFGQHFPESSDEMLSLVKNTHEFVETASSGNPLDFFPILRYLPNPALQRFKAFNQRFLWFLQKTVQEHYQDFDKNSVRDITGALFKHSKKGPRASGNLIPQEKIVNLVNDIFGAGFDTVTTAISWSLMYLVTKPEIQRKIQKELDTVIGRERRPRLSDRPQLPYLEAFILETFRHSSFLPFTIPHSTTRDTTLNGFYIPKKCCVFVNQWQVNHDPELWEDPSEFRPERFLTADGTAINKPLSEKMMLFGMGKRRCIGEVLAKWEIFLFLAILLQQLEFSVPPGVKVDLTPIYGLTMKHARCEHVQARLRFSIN
Description: as §1

[9] = tested on: bleomycin-induced pulmonary fibrosis; test: Bleomycin-induced pulmonary fibrosis in mice; format: in vivo, mouse; conditions: 10, 30, or 100 mg/kg oral gavage daily for 39 days
[10] = Plasma protein binding (ultracentrifugation), monkey
[11] = tested on: cigarette smoke-induced COPD; test: Cigarette smoke-induced COPD in mice; format: in vivo, mouse
Experimental: (a) KC; (b) IL-6; (c) TNF-α; (d) IFN-γ; (e) RANTES. […] An AIM analog (63355) was tested in the same study for comparison. Asterisks indicate a statistically significant difference form the CS control group.
At the end of the study, lung tissue and BALF were collected for analysis of inflammatory infiltrates and cytokines. […] An AIM analog (63355) was tested in the same study for comparison. 63355 is a compound of the formula: […]
Txnrd, Gst, and […] enzyme activities were measured using commercially available kits from Cayman Chemical (Ann Arbor, Mich.).

CC1(C)CC[C@]2(NC(=O)C(C)(F)F)CC[C@]3(C)[C@H](C(=O)C=C4[C@@]5(C)C=C(C#N)C(=O)C(C)(C)[C@@H]5CC[C@]43C)[C@@H]2C1 [RTA 408, N-((4aS,6aR,6bS,8aR,12aS,14aR,14bS)-11-cyano-2,2,6a,6b,9,9,12a-heptamethyl-10,14-dioxo-1,2,3,4,4a,5,6,6a,6b,7,8,8a,9,10,12a,14,14a,14b-octadecahydropicen-4a-yl)-2,2-difluoropropanamide]
B cells within the airways (ovalbumin-induced asthma; 30 mg/kg): significantly reduced the number and percentage of B cells within the airways
Macrophages detected in the airways (ovalbumin-induced asthma; 3 and 30 mg/kg): significantly reduced the number of macrophages
Intracellular pyruvate levels [1]: increased intracellular pyruvate levels in a dose-dependent manner
Time of maximal concentrations [2]: 1 to 24 h
Parent molecule remaining [3]: < 10%
Transaminases [4]: Transaminase elevations were observed
Pulmonary endpoints (respiratory rate, tidal volume, minute volume) (pulmonary function): did not produce any adverse effects
fraction unbound [5]: < 0.01
NQO1, Gst, Gsr enzyme activity in monkey liver and lung (and rodent liver) (cynomolgus monkeys; 10, 30, and 100 mg/kg, 14 days): dose-dependent increases in NQO1, Gst, and Gsr enzyme activity
Clinical chemistry (cynomolgus monkeys; 14 days): Clinical chemistry data suggested no obvious toxicity
ALP (cynomolgus monkeys; 10 mg/kg): 382 U/L
ALT (cynomolgus monkeys; 10 mg/kg): 46 U/L
AST (cynomolgus monkeys; 10 mg/kg): 38 U/L
Albumin (cynomolgus monkeys; 10 mg/kg): 4 g/dL
BUN (cynomolgus monkeys; 10 mg/kg): 27 mg/dL
Chol (cynomolgus monkeys; 10 mg/kg): 144 mg/dL
Cr (cynomolgus monkeys; 10 mg/kg): 0.68 mg/dL
Glucose (cynomolgus monkeys; 10 mg/kg): 39 mg/dL
TG (cynomolgus monkeys; 10 mg/kg): 82 mg/dL
Tot Bil (cynomolgus monkeys; 10 mg/kg): 0.23 mg/dL
Tot Prot (cynomolgus monkeys; 10 mg/kg): 7.2 g/dL
ALP (cynomolgus monkeys; 30 mg/kg): 416 U/L
ALT (cynomolgus monkeys; 30 mg/kg): 47 U/L
AST (cynomolgus monkeys; 30 mg/kg): 43 U/L
Albumin (cynomolgus monkeys; 30 mg/kg): 4 g/dL
BUN (cynomolgus monkeys; 30 mg/kg): 20 mg/dL
Chol (cynomolgus monkeys; 30 mg/kg): 122 mg/dL
Cr (cynomolgus monkeys; 30 mg/kg): 0.58 mg/dL
Glucose (cynomolgus monkeys; 30 mg/kg): 53 mg/dL
TG (cynomolgus monkeys; 30 mg/kg): 64 mg/dL
Tot Bil (cynomolgus monkeys; 30 mg/kg): 0.2 mg/dL
Tot Prot (cynomolgus monkeys; 30 mg/kg): 7.2 g/dL
ALP (cynomolgus monkeys; 100 mg/kg): 390 U/L
ALT (cynomolgus monkeys; 100 mg/kg): 43 U/L
AST (cynomolgus monkeys; 100 mg/kg): 37 U/L
Albumin (cynomolgus monkeys; 100 mg/kg): 3.2 g/dL
BUN (cynomolgus monkeys; 100 mg/kg): 24 mg/dL
Chol (cynomolgus monkeys; 100 mg/kg): 93 mg/dL
Cr (cynomolgus monkeys; 100 mg/kg): 0.55 mg/dL
Glucose (cynomolgus monkeys; 100 mg/kg): 32 mg/dL
TG (cynomolgus monkeys; 100 mg/kg): 61 mg/dL
Tot Bil (cynomolgus monkeys; 100 mg/kg): 0.18 mg/dL
Tot Prot (cynomolgus monkeys; 100 mg/kg): 6 g/dL
Increase in total glutathione [6]: > 2 fold
inhibition at 3 µM (CYP2C9): < 50%
IL-6-induced phosphorylation of STAT3 [7]: inhibited phosphorylation of STAT3 induced by IL-6
NQO1 activity induction, Kidney (NQO1 activity): 10.9
NQO1 activity induction, Liver (NQO1 activity): 10.9
NQO1 activity induction, Lung (NQO1 activity): 1.75
Intracellular and extracellular lactate levels [8]: significantly increased intracellular and extracellular lactate levels in a dose-dependent manner
inhibition at 3 µM (CYP1A2): < 50%
Inflammation and interstitial fibrosis (lung histology) [9]: no statistically significant effects were observed
fraction unbound [10]: 0.05
Lung Txnrd enzyme activity ([11]; 30 mg/kg): Txnrd enzyme activity was also induced
Lung NQO1 enzyme activity (decreased by cigarette smoke) ([11]; 3, 10, or 30 mg/kg): rescued this loss
Pro-inflammatory cytokines incl. KC and TNF-α ([11]; doses as low as 3 mg/kg daily for two weeks): significant suppression of pro-inflammatory cytokines
